Laboratory results as given in patent publication US10532977B2, “Small molecule inhibitors of protein tyrosine phosphatases and uses thereof” (Indiana University Research and Technology Corporation, priority 2015, dated 2020).
Entries after “also recorded” stand apart in the source; their conditions may differ.

Key:
[1] = test system: EGF-mediated ERK1/2 phosphorylation; experiment: EGF-mediated ERK1/2 phosphorylation, immunoblot, H1975 cells; format: cell-based, human; conditions: compound 7 at 40 μM
Description: (§1) Cell proliferation and immunoblot analysis. Human non-small cell lung carcinoma cell line H1975 was cultured at 37° C. and 5% CO2 in RPMI-1640 (Corning) supplemented with 10% fetal bovine serum (HyClone). Human breast cancer cell line MDA-MB-231 was cultured in DMEM supplemented with 10% fetal bovine serum. For cell proliferation assay, 2˜3×10^3 cells were seeded in each well of 96-well plates. After treating cells with compounds for 2 days, cells were incubated with 50 µg/ml MTT (3-(4,5-Dimethylthiazol-2-yl)-2,5-diphenyltetrazolium bromide) for ˜3-4 hours. Then, the culture medium was removed, DMSO was added to dissolve the formazan crystals. Wells containing only media were used for background correction. The optical density was measured spectrophotometrically at 540 nm. For signaling analysis, cells were serum-starved overnight followed by treatment with vehicle or compounds for 3 hours, and then either left un-stimulated or stimulated with 5 μg/ml EGF or 10 nM PMA (Sigma) for indicated time. Cells were lysed and the lysates were electrophoresed on a 10% polyacrylamide gel, and then transferred to a nitrocellulose membrane, and probed with anti-phospho-ERK1/2 and anti-ERK1/2 (Cell Signaling) antibodies followed by incubation with horseradish peroxidase-conjugated secondary antibodies. […]

[2] = test system: PMA-induced ERK1/2 phosphorylation; experiment: PMA-induced ERK1/2 phosphorylation, immunoblot; format: cell-based, human
Description: as §1

[3] = test system: SKBR3 cells; experiment: SKBR3 cell growth and ERK1/2 in Matrigel; format: cell-based, human; conditions: 5 days
Description: SHP2 inhibitor 2 effects on cell growth in Matrigel. Approximately 300,000 SKBR3 cells were seeded into 150 µL of growth factor reduced Matrigel (BD) that was then covered with 2 mLs of media containing either 20 µL vehicle (DMSO) or the indicated concentrations of compound 2. Cells were then imaged at 24-hour intervals using a NIKON SMZ1500 stereomicroscope. After 5 days the cells were recovered from the Matrigel by the following method. Media was aspirated and cells were washed with 500 µL of cold PBS. 150 µL of RIPA lysis buffer supplemented with ProteCEASE-50. EDTA Free protease inhibitors (GBiosciences) was added to the Matrigel. Cells were scraped into a slurry and instantly frozen using dry ice for 5 minutes. After thawing tubes were spun down at 4° C. for 10 minutes at 14K rpm. Proteins were then resolved by SDS-PAGE and the relative levels of total and phospho-ERK1/2 were detected by immunoblot analysis.

[4] = target: PTP1B (Homo sapiens, UniProt P18031); experiment: PTP1B inhibition, pNPP substrate; format: biochemical; conditions: pNPP at Km, pH 7.0, 25° C.
[5] = target: TcPTP (Homo sapiens, UniProt P17706); experiment: TcPTP inhibition, pNPP substrate; format: biochemical; conditions: pH 7
[6] = target: LYP (Homo sapiens, UniProt Q9Y2R2); experiment: LYP inhibition, pNPP substrate; format: biochemical; conditions: pNPP at Km, pH 7.0, 25° C.
[7] = target: SHP1 (Homo sapiens, UniProt P29350); experiment: SHP1 inhibition, pNPP substrate; format: biochemical; conditions: pNPP at Km, pH 7.0, 25° C.
[8] = target: T1, SHP2 (Homo sapiens, UniProt Q06124); experiment: SHP2 inhibition, pNPP substrate; format: biochemical; conditions: for mode of SHP2 inhibition: pNPP as substrate
T1 sequence (Q06124 224-528): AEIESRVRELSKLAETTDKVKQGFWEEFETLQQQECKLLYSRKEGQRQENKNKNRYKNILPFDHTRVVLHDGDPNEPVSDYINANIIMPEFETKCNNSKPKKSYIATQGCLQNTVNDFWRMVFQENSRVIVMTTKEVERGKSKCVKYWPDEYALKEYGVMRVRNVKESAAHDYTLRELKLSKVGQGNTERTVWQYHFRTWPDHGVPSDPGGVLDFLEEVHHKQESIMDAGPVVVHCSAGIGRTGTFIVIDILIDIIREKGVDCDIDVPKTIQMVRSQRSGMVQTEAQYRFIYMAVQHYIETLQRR

[9] = target: HePTP (Homo sapiens, UniProt P35236); experiment: HePTP inhibition, pNPP substrate; format: biochemical; conditions: pNPP at Km, pH 7.0, 25° C.
[10] = target: Meg2 (Homo sapiens, UniProt P43378); experiment: Meg2 inhibition, pNPP substrate; format: biochemical; conditions: pNPP at Km, pH 7.0, 25° C.
[11] = target: FAP1 (Homo sapiens, UniProt Q12923); experiment: FAP1 inhibition, pNPP substrate; format: biochemical; conditions: pH 7
[12] = target: CD45 (Homo sapiens, UniProt P08575); experiment: CD45 inhibition, pNPP substrate; format: biochemical; conditions: pNPP at Km, pH 7.0, 25° C.
[13] = target: LAR (Homo sapiens, UniProt P10586); experiment: LAR inhibition, pNPP substrate; format: biochemical; conditions: pNPP at Km, pH 7.0, 25° C.
[14] = target: PTPα (Homo sapiens, UniProt P18433); experiment: PTPα inhibition, pNPP substrate; format: biochemical; conditions: pNPP at Km, pH 7.0, 25° C.
[15] = target: PTPβ (Homo sapiens, UniProt P23467); experiment: PTPβ inhibition, pNPP substrate; format: biochemical, mammalian; conditions: pNPP at Km, pH 7.0, 25° C.
[16] = target: PTPγ (Homo sapiens, UniProt P23470); experiment: PTPγ inhibition, pNPP substrate; format: biochemical; conditions: pNPP at Km, pH 7.0, 25° C.
[17] = target: PTPσ (Homo sapiens, UniProt Q13332); experiment: PTPσ inhibition, pNPP substrate; format: biochemical; conditions: pH 7
[18] = target: PTPε (Homo sapiens, UniProt P23469); experiment: PTPε inhibition, pNPP substrate; format: biochemical, mammalian; conditions: pNPP at Km, pH 7.0, 25° C.
[19] = target: PTPμ (Homo sapiens, UniProt P28827); experiment: PTPμ inhibition, pNPP substrate; format: biochemical, mammalian; conditions: pNPP at Km, pH 7.0, 25° C.
[20] = target: MKP3 (Homo sapiens, UniProt Q16828); experiment: MKP3 inhibition, pNPP substrate; format: biochemical; conditions: pH 7
[21] = target: VHR (Homo sapiens, UniProt P51452); experiment: VHR inhibition, pNPP substrate; format: biochemical; conditions: pNPP at Km, pH 7.0, 25° C.
[22] = target: T2, VHZ (Homo sapiens, UniProt Q9BVJ7); experiment: VHZ inhibition, pNPP substrate; format: biochemical; conditions: pNPP at Km, pH 7.0, 25° C.
T2 construct: made in house

[23] = target: CDC14A (Homo sapiens, UniProt Q9UNH5); experiment: CDC14A inhibition, pNPP substrate; format: biochemical; conditions: pNPP at Km, pH 7.0, 25° C.
[24] = target: PP5 (Homo sapiens, UniProt P53041); experiment: PP5 inhibition, pNPP substrate; format: biochemical, mammalian; conditions: pNPP at Km, pH 7.0, 25° C.
[25] = target: T3, Ssu72 (Homo sapiens, UniProt Q9NP77); experiment: Ssu72 inhibition, pNPP substrate; format: biochemical; conditions: pH 7
T3 construct: made in house

[26] = target: SHP2/R362A (Homo sapiens, UniProt Q06124, R362A); experiment: SHP2/R362A mutant inhibition, pNPP substrate; format: biochemical; conditions: vs wild-type SHP2
Description: Protein expression and purification. […] These proteins were expressed in E. coli BL21(DE3) and purified with Ni-NTA resin (Qiagen). The SHP2 catalytic domain (residues 262-528) used for crystallization was expressed in E. coli BL21(DE3) and purified by Ni-NTA agarose (Qiagen) followed by sequential chromatography of HiPrep 26 desalting column (GE Healthcare), and cation exchange column packed with SP sepharose (GE Healthcare). Protein purity was determined to be greater than 95% by SDS-PAGE and Coomassie blue staining.
Enzyme kinetics and inhibition studies. The SHP2 phosphatase activity was assayed in 96-well plates using pNPP as a substrate at 25° C. in 50 mM 3,3-dimethylglutarate (DMG) buffer (pH=7.0), containing 1 mM EDTA with an ionic strength of 0.15 M adjusted by NaCl. The FDA-approved drug collection or the SPAA based libraries were screened in a 96-well format at two different compound concentrations (10 and 20 μM for FDA drugs and 10 and 1 μM for the SPAA libraries). […] The amount of product, p-nitrophenol, was determined from the absorbance at 405 nm detected by a Spectra MAX340 microplate spectrophotometer (Molecular Devices) using a molar extinction coefficient of 18,000 M^−1 cm^−1. […] The Michaelis-Menten kinetic parameters kcat and Km were determined from a direct fit of the velocity versus substrate concentration data to Michaelis-Menten equation using SigmaPlot program.

[27] = Stability in buffer solutions by LC-MS; format: physicochemical
Description: (§2) Agilent Technologies 6130 quadrupole LC-MS instrument was used for the LC-MS studies. A C18 reserved phase column (phenomenex, 50×4.6 mm) was used as stationary phase, water and methanol (both containing 0.1% formic acid) were used as mobile phase (gradient: 0-100% methanol, flow 0 8 ml/min, run time 15 minutes), and UV absorbance at the fixed wavelength of 254 nm and positive and negative ESI-MS data were recorded. The sample was adjusted to have a concentration at 0.1 mg/mL, and the injection volume of each sample was 0.2 μL. The retention time and corresponding ESI-MS data were used as identity of molecules.

[28] = target: SHP2 (Homo sapiens, UniProt Q06124); experiment: Covalent adduct formation with SHP2, QTOF ESI-MS / LC-MS; conditions: pH 7, cefsulodin 3 hours, PVS 10 minutes
Description: Characterization of cefsulodin-mediated SHP2 inhibition by Q-TOF ESI-MS, LC-MS, and HPLC. Agilent 6520 Accurate-Mass was used for the Q-TOF ESI-MS studies. Water and acetonitrile (both containing 0.1% formic acid) were used as eluent (80% water, flow 50 μL/min, run time 5 minutes). ESI positive mode was used with mass range from 300 to 1700, the gas temperature was 325° C., and vaporizer temperature was: […] The sample was adjusted to have a concentration at 0.1 mg/mL, the injection volume of each sample was 1 μL. Mass hunter software was used for protein deconvolution data analysis to calculate the molecular weight of the protein.
as §2

[29] = target: T4, Laforin (Homo sapiens, UniProt O95278); experiment: Laforin inhibition, pNPP substrate; format: biochemical
T4 sequence (O95278 1-331): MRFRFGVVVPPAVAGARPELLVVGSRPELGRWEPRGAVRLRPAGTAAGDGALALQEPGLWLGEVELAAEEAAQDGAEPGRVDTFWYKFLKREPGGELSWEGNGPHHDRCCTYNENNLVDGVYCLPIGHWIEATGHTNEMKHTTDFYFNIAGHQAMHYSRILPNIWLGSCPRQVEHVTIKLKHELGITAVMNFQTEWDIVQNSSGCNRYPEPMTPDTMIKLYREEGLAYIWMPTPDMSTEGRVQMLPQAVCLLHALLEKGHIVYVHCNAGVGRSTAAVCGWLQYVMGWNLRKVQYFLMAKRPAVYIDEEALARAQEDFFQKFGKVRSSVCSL

[30] = target: PEST (Homo sapiens, UniProt Q05209); experiment: PEST inhibition, pNPP substrate; format: biochemical
[31] = target: LMWPTP (Homo sapiens, UniProt P24666); experiment: biochemical

FAP1, sequence (Q12923 whole entry): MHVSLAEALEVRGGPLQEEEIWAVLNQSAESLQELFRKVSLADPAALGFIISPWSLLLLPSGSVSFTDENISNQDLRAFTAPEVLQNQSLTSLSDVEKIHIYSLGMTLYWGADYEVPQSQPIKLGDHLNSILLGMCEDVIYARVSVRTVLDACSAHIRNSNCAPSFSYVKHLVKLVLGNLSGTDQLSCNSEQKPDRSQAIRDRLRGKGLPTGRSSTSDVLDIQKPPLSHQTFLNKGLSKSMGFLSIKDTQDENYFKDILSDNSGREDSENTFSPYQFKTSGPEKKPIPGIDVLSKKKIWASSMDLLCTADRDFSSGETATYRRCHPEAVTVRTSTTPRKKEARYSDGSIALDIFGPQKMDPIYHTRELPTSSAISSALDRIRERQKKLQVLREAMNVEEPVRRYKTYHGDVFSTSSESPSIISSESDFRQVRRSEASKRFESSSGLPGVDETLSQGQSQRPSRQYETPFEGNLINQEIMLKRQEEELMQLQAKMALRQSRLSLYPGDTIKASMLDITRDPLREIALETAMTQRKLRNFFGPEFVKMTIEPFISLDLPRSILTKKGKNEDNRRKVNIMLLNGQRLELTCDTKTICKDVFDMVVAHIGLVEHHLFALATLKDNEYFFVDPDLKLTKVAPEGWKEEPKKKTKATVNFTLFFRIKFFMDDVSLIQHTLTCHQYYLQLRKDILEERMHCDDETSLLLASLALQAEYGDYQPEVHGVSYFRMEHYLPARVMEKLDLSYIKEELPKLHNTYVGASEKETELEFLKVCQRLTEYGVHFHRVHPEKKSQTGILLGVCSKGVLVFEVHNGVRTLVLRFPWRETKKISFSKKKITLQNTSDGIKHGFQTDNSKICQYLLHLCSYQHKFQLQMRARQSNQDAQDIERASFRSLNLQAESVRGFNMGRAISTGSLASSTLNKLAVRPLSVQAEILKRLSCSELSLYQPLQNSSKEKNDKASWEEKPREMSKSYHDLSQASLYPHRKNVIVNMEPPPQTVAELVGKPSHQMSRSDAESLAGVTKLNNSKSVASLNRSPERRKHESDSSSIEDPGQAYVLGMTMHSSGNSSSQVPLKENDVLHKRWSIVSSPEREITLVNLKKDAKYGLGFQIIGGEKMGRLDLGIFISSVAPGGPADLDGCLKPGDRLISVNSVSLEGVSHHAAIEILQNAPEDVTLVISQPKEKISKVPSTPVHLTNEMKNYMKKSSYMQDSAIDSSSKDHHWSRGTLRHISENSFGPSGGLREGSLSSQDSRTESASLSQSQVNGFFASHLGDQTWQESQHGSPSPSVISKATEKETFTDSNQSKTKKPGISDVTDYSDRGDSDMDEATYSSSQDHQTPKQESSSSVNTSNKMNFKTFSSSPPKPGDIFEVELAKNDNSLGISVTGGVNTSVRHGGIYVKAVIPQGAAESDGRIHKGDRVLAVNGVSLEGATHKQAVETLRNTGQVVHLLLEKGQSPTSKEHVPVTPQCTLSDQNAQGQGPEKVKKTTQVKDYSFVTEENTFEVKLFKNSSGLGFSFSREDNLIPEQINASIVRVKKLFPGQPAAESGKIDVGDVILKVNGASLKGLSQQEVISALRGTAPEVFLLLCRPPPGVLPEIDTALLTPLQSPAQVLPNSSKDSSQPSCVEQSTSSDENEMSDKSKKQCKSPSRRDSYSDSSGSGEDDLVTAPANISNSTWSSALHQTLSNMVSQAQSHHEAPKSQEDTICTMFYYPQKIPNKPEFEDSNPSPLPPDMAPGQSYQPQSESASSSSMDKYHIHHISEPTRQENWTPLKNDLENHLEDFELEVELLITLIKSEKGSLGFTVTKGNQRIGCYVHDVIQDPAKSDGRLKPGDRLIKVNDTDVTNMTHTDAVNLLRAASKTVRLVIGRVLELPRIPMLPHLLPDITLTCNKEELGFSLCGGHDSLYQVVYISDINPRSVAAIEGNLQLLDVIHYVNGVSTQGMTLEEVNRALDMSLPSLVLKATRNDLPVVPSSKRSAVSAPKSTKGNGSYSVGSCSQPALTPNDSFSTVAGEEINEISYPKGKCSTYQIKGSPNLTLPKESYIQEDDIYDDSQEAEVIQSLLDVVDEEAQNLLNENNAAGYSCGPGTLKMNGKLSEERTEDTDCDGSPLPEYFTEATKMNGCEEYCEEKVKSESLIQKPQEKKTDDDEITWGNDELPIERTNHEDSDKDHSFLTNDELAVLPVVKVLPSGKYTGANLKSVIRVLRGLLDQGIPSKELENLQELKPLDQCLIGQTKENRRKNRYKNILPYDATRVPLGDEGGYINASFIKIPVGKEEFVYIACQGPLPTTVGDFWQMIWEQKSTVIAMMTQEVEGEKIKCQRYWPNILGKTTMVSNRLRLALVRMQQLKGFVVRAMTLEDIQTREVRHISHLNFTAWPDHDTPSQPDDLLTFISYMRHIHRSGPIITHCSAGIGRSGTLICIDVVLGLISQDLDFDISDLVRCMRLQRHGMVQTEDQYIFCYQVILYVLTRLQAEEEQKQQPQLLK
LYP, sequence (Q9Y2R2 whole entry): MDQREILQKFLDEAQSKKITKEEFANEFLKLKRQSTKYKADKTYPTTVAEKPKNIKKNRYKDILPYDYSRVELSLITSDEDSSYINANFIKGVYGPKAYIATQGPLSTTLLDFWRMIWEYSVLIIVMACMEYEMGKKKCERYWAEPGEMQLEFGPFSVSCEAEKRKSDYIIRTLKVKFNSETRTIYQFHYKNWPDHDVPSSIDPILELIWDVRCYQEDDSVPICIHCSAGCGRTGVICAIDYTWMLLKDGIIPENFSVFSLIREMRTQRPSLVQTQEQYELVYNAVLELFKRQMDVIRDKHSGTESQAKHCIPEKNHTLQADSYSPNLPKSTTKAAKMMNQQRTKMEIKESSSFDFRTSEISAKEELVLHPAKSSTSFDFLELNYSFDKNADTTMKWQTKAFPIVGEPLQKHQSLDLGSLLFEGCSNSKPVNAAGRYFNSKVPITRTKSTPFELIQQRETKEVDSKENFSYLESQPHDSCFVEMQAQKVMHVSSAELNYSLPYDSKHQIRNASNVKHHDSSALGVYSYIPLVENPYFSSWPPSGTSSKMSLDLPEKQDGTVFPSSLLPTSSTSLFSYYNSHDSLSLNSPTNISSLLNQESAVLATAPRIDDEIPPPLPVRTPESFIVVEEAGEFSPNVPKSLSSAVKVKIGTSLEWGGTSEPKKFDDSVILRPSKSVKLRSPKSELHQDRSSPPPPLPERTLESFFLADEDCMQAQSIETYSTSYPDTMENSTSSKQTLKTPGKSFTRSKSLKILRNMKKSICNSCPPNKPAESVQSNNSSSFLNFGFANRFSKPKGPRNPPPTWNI
CDC14A, sequence (Q9UNH5 whole entry): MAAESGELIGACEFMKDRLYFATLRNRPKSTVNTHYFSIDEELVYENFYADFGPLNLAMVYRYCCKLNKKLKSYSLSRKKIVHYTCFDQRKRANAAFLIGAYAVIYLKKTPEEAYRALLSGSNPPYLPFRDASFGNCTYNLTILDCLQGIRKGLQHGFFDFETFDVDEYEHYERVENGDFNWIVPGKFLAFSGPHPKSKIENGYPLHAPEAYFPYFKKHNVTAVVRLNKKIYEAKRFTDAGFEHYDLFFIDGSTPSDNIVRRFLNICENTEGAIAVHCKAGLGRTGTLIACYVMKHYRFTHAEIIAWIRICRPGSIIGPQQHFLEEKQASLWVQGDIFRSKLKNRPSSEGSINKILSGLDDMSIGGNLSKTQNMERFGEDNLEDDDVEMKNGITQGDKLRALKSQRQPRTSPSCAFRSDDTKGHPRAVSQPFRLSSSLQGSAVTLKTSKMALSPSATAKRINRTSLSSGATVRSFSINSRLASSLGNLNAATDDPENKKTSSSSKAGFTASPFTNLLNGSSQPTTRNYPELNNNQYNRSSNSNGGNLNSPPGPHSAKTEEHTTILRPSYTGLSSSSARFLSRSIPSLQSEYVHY
T3 sequence (Q9NP77 whole entry): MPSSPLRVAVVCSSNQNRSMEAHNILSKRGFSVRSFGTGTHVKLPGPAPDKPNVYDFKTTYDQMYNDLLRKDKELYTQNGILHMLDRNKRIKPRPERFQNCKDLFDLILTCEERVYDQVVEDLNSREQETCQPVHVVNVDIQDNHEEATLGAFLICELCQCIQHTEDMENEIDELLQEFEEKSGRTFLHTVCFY
PTP1B, sequence (P18031 whole entry): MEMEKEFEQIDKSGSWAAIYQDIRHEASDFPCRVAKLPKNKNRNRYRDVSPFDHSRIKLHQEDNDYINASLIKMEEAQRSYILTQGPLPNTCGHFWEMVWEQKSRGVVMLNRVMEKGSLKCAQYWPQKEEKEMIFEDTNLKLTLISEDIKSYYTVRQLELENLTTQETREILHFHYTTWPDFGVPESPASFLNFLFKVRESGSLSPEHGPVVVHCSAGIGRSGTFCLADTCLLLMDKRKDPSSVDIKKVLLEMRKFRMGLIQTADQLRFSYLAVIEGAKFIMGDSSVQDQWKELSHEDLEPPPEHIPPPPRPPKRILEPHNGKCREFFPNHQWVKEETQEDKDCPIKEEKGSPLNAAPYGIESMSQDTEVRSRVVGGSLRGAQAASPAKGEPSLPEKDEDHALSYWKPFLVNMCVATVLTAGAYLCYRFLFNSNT
MKP3, sequence (Q16828 whole entry): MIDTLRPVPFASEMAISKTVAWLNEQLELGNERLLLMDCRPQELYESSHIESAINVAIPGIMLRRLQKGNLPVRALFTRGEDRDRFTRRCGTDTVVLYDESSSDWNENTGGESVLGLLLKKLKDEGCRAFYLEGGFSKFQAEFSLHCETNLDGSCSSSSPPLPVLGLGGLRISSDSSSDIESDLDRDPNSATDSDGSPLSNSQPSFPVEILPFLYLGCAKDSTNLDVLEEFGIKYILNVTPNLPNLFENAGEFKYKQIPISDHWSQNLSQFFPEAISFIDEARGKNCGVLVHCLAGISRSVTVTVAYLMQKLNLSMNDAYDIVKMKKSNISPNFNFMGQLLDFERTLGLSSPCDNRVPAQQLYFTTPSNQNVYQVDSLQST
T2 sequence (Q9BVJ7 whole entry, species assumed): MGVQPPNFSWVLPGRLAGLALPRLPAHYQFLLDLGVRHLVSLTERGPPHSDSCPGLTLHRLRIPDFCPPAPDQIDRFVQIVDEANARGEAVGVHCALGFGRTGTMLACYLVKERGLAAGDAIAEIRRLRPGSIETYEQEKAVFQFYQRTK

## O=C(Nc1ccc(I)cc1)C(=O)Nc1ccc(NC(=O)C(c2ccccc2)S(=O)(=O)O)cc1 (stereo not shown) [Compound 2, 2-((4-(2-((4-iodophenyl)amino)-2-oxoacetamido)phenyl)amino)-2-oxo-1-phenylethanesulfonic acid]
[1]
  EGF-mediated ERK1/2 phosphorylation in H1975 cells: reduced EGF-mediated ERK1/2 phosphorylation in a dose-dependent manner; also recorded: decrease the EGF-mediated ERK1/2 phosphorylation in a dose dependent manner
[2]
  PMA-induced ERK1/2 phosphorylation: no effect
[3]; 20 μM
  ERK1/2 activity in SKBR3 cells in Matrigel at 20 μM: partial inhibition
  SKBR3 cell growth in Matrigel at 20 μM: partial inhibition
[3]; 40 μM
  ERK1/2 activity in SKBR3 cells in Matrigel at 40 μM: barely detectable
  SKBR3 cell growth in Matrigel at 40 μM: almost completely absent

## Cc1c(Br)cc(NC(=O)C(c2ccccc2)S(=O)(=O)O)cc1Br (stereo not shown) [Compound L319M34]
[4]
  IC50: > 200 µM
[5]
  IC50: > 200 µM
[6]
  IC50: > 200 µM
[7]
  IC50: > 200 µM
[8]; pNPP at Km, pH 7.0, 25° C.
  IC50: > 200 µM
[9]
  IC50: > 200 µM
[10]
  IC50: > 200 µM
[11]
  IC50: > 200 µM
[12]
  IC50: > 200 µM
[13]
  IC50: > 200 µM
[14]
  IC50: > 200 µM
[15]
  IC50: > 200 µM
[16]
  IC50: > 200 µM
[17]
  IC50: > 200 µM
[18]
  IC50: > 200 µM
[19]
  IC50: > 200 µM
[20]
  IC50: > 200 µM
[21]
  IC50: > 200 µM
[22]
  IC50: > 200 µM
[23]
  IC50: > 200 µM
[24]
  IC50: > 200 µM
[25]
  IC50: > 200 µM

## NC(=O)c1cc[n+](CC2=C(C(=O)O)N3C(=O)[C@@H](NC(=O)[C@@H](c4ccccc4)S(=O)(=O)[O-])[C@H]3SC2)cc1 [Cefsulodin]
[8]
  mode of SHP2 inhibition: competitive inhibitor
[8]; listed as cefsulodin
  mode of SHP2 inhibition: competitive and reversible
[26]
  increase of IC50 by replacement of R362 with alanine: 3 fold
[27]; 20° C., with SHP2 and DTT
  stability in crystallization solution (final pH=7.1): completely degraded within 2 days; also recorded: the majority of cefsulodin was gone after 2 d
[27]; 3 h, 6 h, 12 h
  stability in CBTP buffer at pH 9.1: degradation was further accelerated; also recorded: cefsulodin was gone after 12 h
[27]; 12 h, 1 d, 2 d
  stability in pH 5.8 MES buffer: degradation of cefsulodin was negligible; also recorded: stable for at least 2 days
  stability in pH 7.4 CBTP buffer: degradation was obvious; also recorded: cefsulodin concentrations decreased progressively
[27]; pH 7 and 25° C., 0 h, 3 h, 24 h and 48 h
  stability under inhibition assay conditions: no change in cefsulodin
[28]
  covalent adduct formation with SHP2: no covalent adduct formation; also recorded: not inhibiting SHP2 by covalent modification

## O=C(Nc1nnc(-c2ccc(Br)cc2)s1)C(c1ccccc1)S(=O)(=O)O (stereo not shown) [Compound L319M79]
[29]
  IC50: 2.2 µM
[30]
  IC50: 26.5 µM
[31]
  IC50: 23.6 µM
